Values quoted from earlier work as cited in patent US20120121653A1, “Novel mometasone compositions and methods of making and using the same” (Elan Pharma International Limited, priority 2005, published 2012).
Read-outs that look alike come from different tables or passages of the source.

Experiments:
[1] = not given; remark: listed apart in the source

For `C[C@@H]1C[C@H]2[C@@H]3CCC4=CC(=O)C=C[C@]4(C)[C@@]3(Cl)[C@@H](O)C[C@]2(C)[C@@]1(OC(=O)c1ccco1)C(=O)CCl` [Mometasone furoate monohydrate, 9,21-Dichloro-11, β,17-di-hydroxy-16^α-methylpregna-1,4-diene-3 ,20-done 17-(2 furoate)], the solubility (in acetone) is listed as “soluble”, the solubility (in chloroform) is listed as “soluble” and the solubility (in ethanol) is listed as “slightly soluble”. For the same compound, the solubility (in isopropanol) was “slightly soluble”, the solubility (in methanol) was “slightly soluble” and the solubility (in tetrahydrofuran) was “freely soluble”. The solubility (in water) was “practically insoluble” and the “partition coefficient between octanol and water” value [1] was “greater than 5000”.
